# Molecular target: T1, human MRGPR X4 (Homo sapiens, UniProt Q96LA9)
# T1 construct: expressed in transfected cells
# Experiment: MRGPR X4 antagonist activity, IP-One Gq HTRF assay in stably transfected HEK cells
# Assay type: cell-based
# Settings: not given
# Method in brief: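 IC50 comes from HTRF IP-1 accumulation in stably transfected HEK cells expressing human MRGPR X4. Compounds (10 uM top, 1:3 serial, 10 points) were co-incubated with 10 μM bilirubin, 20 μM deoxycholic acid or 100 μM conjugated bilirubin in LiCl-containing buffer, pH 8, for 1 h at 37 °C plus 30 min at room temperature.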
# T1 sequence (Q96LA9 whole entry): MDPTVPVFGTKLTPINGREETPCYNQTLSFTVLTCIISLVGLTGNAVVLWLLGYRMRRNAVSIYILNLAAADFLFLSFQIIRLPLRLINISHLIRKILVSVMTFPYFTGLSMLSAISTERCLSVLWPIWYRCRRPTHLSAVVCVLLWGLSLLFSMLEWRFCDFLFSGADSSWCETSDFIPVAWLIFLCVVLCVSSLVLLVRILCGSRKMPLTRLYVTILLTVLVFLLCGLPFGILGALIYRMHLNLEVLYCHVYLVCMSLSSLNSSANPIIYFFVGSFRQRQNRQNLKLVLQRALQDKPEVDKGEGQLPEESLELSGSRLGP
row,SMILES,IC50 [nM]
1,O=C(NCCc1nnc2ccccn12)c1nn(Cc2ccc3c(c2)OCO3)c2ccccc12 [Compound 508],100 to 500
2,O=C(NCCc1nnc2ccccn12)c1nn(Cc2cc(F)cc(C(F)(F)F)c2)c2ccccc12 [Compound 509],100 to 500
3,O=C(NCCc1nnc2ccccn12)c1nn(Cc2nc(C3CCC3)no2)c2ccccc12 [Compound 511],100 to 500
4,O=C(NCCc1nnc2ccccn12)c1nn(Cc2csc(-c3ccccc3)n2)c2ccccc12 [Compound 512],100 to 500
5,O=C(NCCc1nnc2ccccn12)c1nn(Cc2nc(C(F)(F)F)no2)c2ccccc12 [Compound 513],> 2500
6,Cc1oc(-c2ccccc2F)nc1Cn1nc(C(=O)NCCc2nnc3ccccn23)c2ccccc21 [Compound 514],100 to 500
7,Cn1nccc1Cn1nc(C(=O)NCCc2nnc3ccccn23)c2ccccc21 [Compound 515],> 2500
8,O=C(NCCc1nnc2ccccn12)c1nn(Cc2nc3ccccc3[nH]c2=O)c2ccccc12 [Compound 516],> 2500
9,O=C(Cn1nc(C(=O)NCCc2nnc3ccccn23)c2ccccc21)c1ccc(F)c(F)c1 [Compound 517],1000 to 2500
10,O=C(NCCc1nnc2ccccn12)c1nn(Cc2cccn3ccnc23)c2ccccc12 [Compound 518],1000 to 2500
11,COc1ccc2nc(Cn3nc(C(=O)NCCc4nnc5ccccn45)c4ccccc43)[nH]c2c1 [Compound 519],501 to 1000
12,Cc1occc1Cn1nc(C(=O)NCCc2nnc3ccccn23)c2ccccc21 [Compound 520],> 2500
13,O=C(NCCc1nnc2ccccn12)c1nn(Cc2nc3ccccc3[nH]2)c2ccccc12 [Compound 521],1000 to 2500
14,O=C(NCCc1nnc2ccccn12)c1nn(Cc2nc3ccc(C(F)(F)F)cc3[nH]2)c2ccccc12 [Compound 522],501 to 1000
15,Cc1cccc(CCn2nc(C(=O)NCCc3nnc4ccccn34)c3ccccc32)c1 [Compound 523],1000 to 2500
16,O=C(NCCc1nnc2ccccn12)c1nn(Cc2ccc(Cl)c(F)c2)c2ccccc12 [Compound 524],< 100
17,O=C(NCCc1nnc2ccccn12)c1nn(Cc2ccc(Cl)cc2Cl)c2ccccc12 [Compound 525],< 100
18,O=C(NCCc1nnc2ccccn12)c1nn(Cc2ccc(Cl)c(Cl)c2)c2ccccc12 [Compound 526],< 100
19,O=C(NCCc1nnc2ccccn12)c1nn(Cc2ccc(Cl)cc2F)c2ccccc12 [Compound 527],< 100
20,Cc1ccc(Cn2nc(C(=O)NCCc3nnc4ccccn34)c3ccccc32)cc1 [Compound 528],< 100
21,O=C(NCCc1nnc2ccccn12)c1nn(Cc2ccc(Cl)cc2)c2ccc(Br)cc12 [Compound 529],< 100
22,"Cc1ccc2c(c1)c(C(=O)NCCc1nnc3ccccn13)nn2Cc1ccc(Cl)cc1 [Compound 530, N-(2-([1,2,4]triazolo[4,3-a]pyridin-3-yl)ethyl)-1-(4-chlorobenzyl)-5-methyl-1H-indazole-3-carboxamide]",< 100

row,SMILES,IC50 [nM]
1,O=C(NCCc1nnc2ccccn12)c1nn(Cc2ccc(C(F)(F)F)cc2)c2ccc(F)cc12 [Compound 531],< 100
2,"O=C(NCCc1nnc2ccccn12)c1nn(Cc2ccc3ccccc3c2)c2ccc(F)cc12 [Compound 532, N-(2-([1,2,4]triazolo[4,3-a]pyridin-3-yl)ethyl)-5-fluoro-1-(naphthalen-2-ylmethyl)-1H-indazole-3-carboxamide]",< 100
3,O=C(NCCn1nnc2ccccc21)c1nn(Cc2ccc(Cl)cc2)c2ccc(F)cc12 [Compound 533],< 100
4,Cc1[nH]c2ccc(O)cc2c1CCNC(=O)c1nn(Cc2ccc(Cl)cc2)c2ccc(F)cc12 [Compound 534],< 100
5,O=C(NCCc1nnc2ccccn12)c1nn(Cc2cc3c(cc2Cl)OCO3)c2ccc(F)cc12 [Compound 536],< 100
6,O=C(NCCc1nnc2ccccn12)c1nn(Cc2ccc3c(c2)CCC3)c2ccc(F)cc12 [Compound 537],< 100
7,O=C(NCCc1nnc2ccccn12)c1nn(Cc2ccc3sccc3c2)c2ccc(F)cc12 [Compound 538],< 100
8,O=C(NCCc1nnc2ccccn12)c1nn(Cc2ccc(Cl)cc2)c2c(Cl)cccc12 [Compound 539],< 100
9,O=C(NCCc1nnc2ccccn12)c1nn(Cc2ccc(Cl)cc2)c2c(F)cccc12 [Compound 540],< 100
10,O=C(NCCc1nnc2ccccn12)c1nn(Cc2ccc(Cl)cc2)c2c(Br)cccc12 [Compound 541],< 100
11,N#Cc1ccc2c(C(=O)NCCc3nnc4ccccn34)nn(Cc3ccc(Cl)cc3)c2c1 [Compound 542],< 100
12,COc1ccc2c(c1)c(C(=O)NCCc1nnc3ccccn13)nn2Cc1ccc(Cl)cc1 [Compound 543],100 to 500
13,Cn1c(Cn2nc(C(=O)NCCc3nnc4ccccn34)c3ccccc32)nc2ccccc21 [Compound 544],100 to 500
14,O=C(NCCc1nnc2ccccn12)c1nn(Cc2cccc3c2CCC3)c2ccccc12 [Compound 545],100 to 500
15,N#Cc1cccc2c1c(C(=O)NCCc1nnc3ccccn13)nn2Cc1ccc(Cl)cc1 [Compound 546],100 to 500
16,O=C(NCCc1nnc2ccccn12)c1nn(Cc2ccc(Cl)cc2)c2cccc(Cl)c12 [Compound 547],501 to 1000
17,O=C(NCCc1nnc2ccccn12)c1nn(Cc2cccc3ccsc23)c2ccccc12 [Compound 548],501 to 1000
18,Cc1ccc2c(C(=O)NCCc3nnc4ccccn34)nn(Cc3ccc(Cl)cc3)c2c1 [Compound 549],100 to 500
19,O=C(NCCc1nnc2ccccn12)c1nn(Cc2ccc(Cl)cc2)c2cc(Br)ccc12 [Compound 550],100 to 500
20,N#Cc1ccc2c(c1)c(C(=O)NCCc1nnc3ccccn13)nn2Cc1ccc(Cl)cc1 [Compound 551],< 100
21,O=C(NCCc1nnc2ccccn12)c1nn(Cc2ccc(Cl)cc2)c2ccc(I)cc12 [Compound 552],< 100
22,O=C(NCCc1nnc2ccccn12)c1nn(Cc2ccc(C(F)(F)F)cc2Cl)c2ccccc12 [Compound 553],< 100

row,SMILES,IC50 [nM]
1,Cc1cc(Cl)ccc1Cn1nc(C(=O)NCCc2nnc3ccccn23)c2ccccc21 [Compound 554],< 100
2,Cc1cc(Cn2nc(C(=O)NCCc3nnc4ccccn34)c3ccccc32)ccc1Cl [Compound 555],< 100
3,O=C(NCCc1nnc2ccccn12)c1nn(Cc2ccc3cc[nH]c3c2)c2ccccc12 [Compound 556],< 100
4,Cc1cc(C)c2oc(Cn3nc(C(=O)NCCc4nnc5ccccn45)c4ccccc43)cc2c1 [Compound 557],100 to 500
5,O=C(NCCc1nnc2ccccn12)c1nn(Cc2cc3ccccc3s2)c2ccccc12 [Compound 558],< 100
6,O=C(NCCc1nnc2ccccn12)c1nn(Cc2ccc3c(c2)CCCC3)c2ccccc12 [Compound 559],< 100
7,Cc1ccc2nc(CCNC(=O)c3nn(Cc4ccc(Cl)cc4)c4ccccc34)[nH]c2c1 [Compound 560],100 to 500
8,Cc1cccc2[nH]c(CCNC(=O)c3nn(Cc4ccc(Cl)cc4)c4ccccc34)nc12 [Compound 561],< 100
9,O=C(NCCc1nnc2ccccn12)c1nn(Cc2ccc(Cl)cc2)c2cc(Cl)ccc12 [Compound 562],< 100
10,COc1ccc2c(C(=O)NCCc3nnc4ccccn34)nn(Cc3ccc(Cl)cc3)c2c1 [Compound 563],< 100
11,O=C(NCCc1nnc2ccccn12)c1nn(Cc2ccc(Cl)cc2)c2cc(C(F)(F)F)ccc12 [Compound 564],< 100
12,Cc1cccc2c1c(C(=O)NCCc1nnc3ccccn13)nn2Cc1ccc(Cl)cc1 [Compound 565],< 100
13,O=C(NCCc1nnc2ccccn12)c1nn(Cc2ccc(Cl)cc2)c2cccc(Br)c12 [Compound 566],100 to 500
14,COc1ccc2nc(Cn3nc(C(=O)NCCc4nnc5ccccn45)c4ccccc43)n(C)c2c1 [Compound 567],1000 to 2500
15,Cc1ccc2nc(Cn3nc(C(=O)NCCc4nnc5ccccn45)c4ccccc43)n(C)c2c1 [Compound 568],501 to 1000
16,Cc1cccc2nc(Cn3nc(C(=O)NCCc4nnc5ccccn45)c4ccccc43)n(C)c12 [Compound 569],100 to 500
17,Cc1ccc2c(c1)nc(Cn1nc(C(=O)NCCc3nnc4ccccn34)c3ccccc31)n2C [Compound 570],> 2500
18,O=C(NCCc1nnc2ccccn12)c1nn(Cc2ccc(Cl)c(Cl)c2)c2ccc(F)cc12 [Compound 571],< 100
19,O=C(NCCc1nnc2ccccn12)c1nn(Cc2ccc(Cl)cc2F)c2ccc(F)cc12 [Compound 572],< 100
20,Cc1c(Cn2nc(C(=O)NCCc3nnc4ccccn34)c3ccccc32)oc2ccccc12 [Compound 573],< 100
21,Cn1c(Cn2nc(C(=O)NCCc3nnc4ccccn34)c3ccccc32)nc2cc(F)ccc21 [Compound 574],100 to 500

# Same assay, conditions: versus 20 μM deoxycholic acid agonist; HEK cells expressing human MRGPR X4; read-out: MRGPRX4 Antagonist Activity
row,SMILES,IC50 [nM]
1,CS(=O)(=O)c1cccc(Cn2nc(C(=O)NCCc3nnc4ccccn34)c3ccccc32)c1 [Compound 510],> 2500

# — US20240254089A1, “MODULATORS OF MAS-RELATED G-PROTEIN RECEPTOR X4 AND RELATED PRODUCTS AND METHODS” (ESCIENT PHARMACEUTICALS, INC., priority 2020, published 2024)
